# Experimental data reported in patent US6284896A, “Abeo-ergoline derivatives as 5HT1A ligands” (Pharmacia & Upjohn S.p.A., priority 1994, dated 2001).
# pIC50: −log10 of the molar value. Read-outs that look alike come from different tables or passages of the source.
# Experiments:
# D2 receptor = target: T1, D2 receptor (Rattus norvegicus, UniProt P61169); experiment: Affinity for Dopamine 2 (D2) receptor, 3H-Spiperone binding test (rat corpus striatum)
# T1 construct: Freezed corpus striatum dissected out from rats were homogenized; from tissue; host or cells: rat corpus striatum, crude synaptosome membranes
# Experimental: Experiment 3: Affinity for Dopamine 2 (D2) Receptor (^3 H-Spiperone Binding Test).
# Preparation of crude synaptosome fraction and binding assays were conducted in accordance with the method reported in European Journal of Pharmacology, vol. 46, page 377, 1977 by I. Creese et al. Freezed corpus striatum dissected out from rats were homogenized in 100 volumes of ice-cold 50 mM Tris-HCl buffer (pH 7.7) and the suspension was centrifuged at 500×g for 10 minutes at 0° C. The supernatant was centrifuged at 50,000×g for 15 minutes at 0° C. and the resulting pellet was homogenized in 100 volumes of the above buffer and then the suspension was centrifuged at 50,000×g for 15 minutes at 0° C. again. The resulting pellet was homogenized in 150 volumes of 50 mM Tris-HCl buffer (pH 7.1) containing 120 mM potassium chloride, 2 mM calcium chloride, 1 mM magnesium chloride, 0.1% ascorbic acid and 10 μM pargyline. The suspension was incubated at 37° C. for 10 minutes and then provided as synaptosome membranes solution for the next assays. To the aliquots (900 μ) of synaptosome membranes solution were added 50 μl of 3H-Spiperone solution at the terminal concentration of 0.2 nM and 50 μl of test compound solution or 50 μl of its medium, and incubated at 37° C. for 20 minutes. After completion of the reaction, the mixture was rapidly vacuum-filtered through WhatmanR GF/B filters. The filters were washed three times with 5 ml of the above buffer, and then the radioactivity of the residue remaining on the filters was measured by liquid scintillation counter. Non specific binding was determined under presence of 100 μM of (L)-Sulpiride 50% inhibition concentration (IC50) of the test compound was graphically determined.
# 5-HT1A receptor = target: T2, 5-HT1A receptor (Rattus norvegicus, UniProt P19327); experiment: Affinity for Serotonin 1A receptor, 3H-8-OH-DPAT binding test (rat hippocampus synaptosome membranes)
# T2 construct: Freezed hippocampus dissected out from rats were homogenized; from tissue; host or cells: rat hippocampus, crude synaptosome membranes
# T2 sequence (P19327 1-422): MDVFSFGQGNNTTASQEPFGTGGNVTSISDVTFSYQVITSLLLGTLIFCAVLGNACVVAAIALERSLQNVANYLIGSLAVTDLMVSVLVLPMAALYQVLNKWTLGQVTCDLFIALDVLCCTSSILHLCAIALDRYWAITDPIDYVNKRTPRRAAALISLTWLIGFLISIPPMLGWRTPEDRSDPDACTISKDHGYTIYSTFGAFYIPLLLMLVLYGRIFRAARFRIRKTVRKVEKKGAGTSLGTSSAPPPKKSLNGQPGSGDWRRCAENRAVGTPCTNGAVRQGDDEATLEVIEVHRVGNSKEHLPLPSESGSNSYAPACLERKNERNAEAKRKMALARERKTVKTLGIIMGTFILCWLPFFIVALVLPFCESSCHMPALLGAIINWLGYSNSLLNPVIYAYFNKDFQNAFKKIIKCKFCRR
# Experimental: Experiment 1: Affinity for Serotonin 1A (^5 KT1A) Receptor [^3 H-8-Hydroxy-2-dipropylaminotetralin (^3-8 -OH-DPTA)-Binding Test].
# Preparation of crude synaptosome fraction and binding assay were conducted in accordance with the method reported in Journal of Neurochemistry, vol.
# The supernatant was centrifuged at 40,000×g for 20 minutes at 0° C. and the resulting pellet was homogenized in 40 volumes of the above buffer and incubated at 37° C. for 10 minutes.
# After completion of reaction, the suspension was centrifuged at 40,000×g for 20 minutes at 0° C. The resulting pellet was washed twice by resuspension in 40 volumes of the above buffer and centrifugation, and finally suspended in 60 volumes of ice-cold 50 mM Tris-HCl buffer (pH 7.4) containing 1 EM manganese chloride for use in the next assay.
# To the aliquots (900 μl) of synaptosome membranes solution were added 50 μl of tritiated 8-OH-DPAT solution at the terminal concentration of 0.2 nM and 50 μl of test compound solution or 50 μl of its medium, and incubated at 37° C. for 10 minutes. Then to the mixture were added 5 ml of ice-cold 50 mM Tris-HCl buffer (pH 7.4) rapidly vacuum-filtered through Whatman^R GF/B. filters and was washed twice with 5 ml of the same buffer. The radioactivity of the residue remaining on the filters was measured by liquid scintillation counter. Non specific binding was determined under the presence of 10^-5 M serotonin (5-HT).
# 5-HT2 receptor = target: T3, 5-HT2 receptor (Rattus norvegicus, UniProt P14842); experiment: Affinity for Serotonin 2 (5-HT2) receptor, 3H-Ketanserin binding test (rat cerebral cortex); conditions: 3H-Ketanserin 0.2 mM (so in the source), 37° C., 20 minutes, read-out: Binding Profile IC50 5-HT2
# T3 construct: Freezed cerebral cortex dissected out from rats were homogenized; from tissue; host or cells: rat cerebral cortex, crude synaptosome membranes
# Experimental: Experiment 2: Affinity for Serotonin 2(5-HT2) Receptor (^3 H-Ketanserin Binding Test).
# Preparation of crude synaptosome fraction and binding assay were conducted according to the method reported in Molecular Pharmacology, vol. 21, page 301, 1981 by Leysen et al.
# Freezed cerebral cortex dissected out from rats were homogenized in 30 volumes of ice-cold 0.32M sucrose solution and the suspension was centrifuged at 1000×g for 10 minutes at 0° C. The supernatant was centrifuged at 40,000×g for 20 minutes at 0° C. and the resulting pellets was homogenized in 30 volumes of ice-cold 50 mM Tris-HCl buffer (pH 7.7) and incubated at 37° C. for 10 minutes. The suspension was centrifuged at 40,000×g for 20 minutes at 0° C. again. The resulting pellet was homogenized in 100 volumes of the above buffer and provided as synaptosome membranes solutiofifor the next assay.
# To the aliquots (900μ) of synaptosome membranes solution were added 50 μl solution ^3 H-Ketanserin solution at the terminal concentration of 0.2 mM and 50 μl of test compound or its medium, and incubated at 37° C. for 20 minutes. After completion of the reaction, the mixture was rapidly vacuum-filtered through Whatman^R GF/B filters. The filters were washed three times with 5 ml of the above buffer, and then the radioactivity of the residue remaining on the filters was measured by liquid scintillation counter. Non specific binding was determined under the presence of 10 μM of mianserin. 50% inhibition concentration (ICY) of the test compound was graphically determined.
# D1 receptor = D1 receptor binding (Binding Profile table)
# [1] = 3H-Spiperone 0.2 nM, rat corpus striatum, 37° C., 20 minutes, read-out: Binding Profile IC50 D2
# [2] = tritiated 8-OH-DPAT 0.2 nM, rat hippocampus, 37° C., 10 minutes, read-out: Binding Profile IC50 5-HT1A
# [3] = read-out: Binding Profile IC50 5-HT1A, tritiated 8-OH-DPAT 0.2 nM, rat hippocampus, 37° C., 10 minutes
# T1 sequence (P61169 whole entry): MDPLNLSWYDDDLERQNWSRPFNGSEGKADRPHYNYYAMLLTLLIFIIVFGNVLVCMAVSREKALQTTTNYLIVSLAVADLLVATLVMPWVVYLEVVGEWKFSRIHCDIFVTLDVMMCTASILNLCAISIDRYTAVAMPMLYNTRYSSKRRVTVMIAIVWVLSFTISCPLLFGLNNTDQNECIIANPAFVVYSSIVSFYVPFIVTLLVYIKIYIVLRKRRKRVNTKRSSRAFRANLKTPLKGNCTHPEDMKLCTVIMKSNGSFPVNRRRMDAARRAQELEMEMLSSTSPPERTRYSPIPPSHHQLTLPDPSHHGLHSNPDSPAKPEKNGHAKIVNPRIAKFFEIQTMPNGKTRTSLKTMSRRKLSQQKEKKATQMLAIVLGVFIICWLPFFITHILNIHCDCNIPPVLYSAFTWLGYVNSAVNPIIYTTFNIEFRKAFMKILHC
# T3 sequence (P14842 whole entry): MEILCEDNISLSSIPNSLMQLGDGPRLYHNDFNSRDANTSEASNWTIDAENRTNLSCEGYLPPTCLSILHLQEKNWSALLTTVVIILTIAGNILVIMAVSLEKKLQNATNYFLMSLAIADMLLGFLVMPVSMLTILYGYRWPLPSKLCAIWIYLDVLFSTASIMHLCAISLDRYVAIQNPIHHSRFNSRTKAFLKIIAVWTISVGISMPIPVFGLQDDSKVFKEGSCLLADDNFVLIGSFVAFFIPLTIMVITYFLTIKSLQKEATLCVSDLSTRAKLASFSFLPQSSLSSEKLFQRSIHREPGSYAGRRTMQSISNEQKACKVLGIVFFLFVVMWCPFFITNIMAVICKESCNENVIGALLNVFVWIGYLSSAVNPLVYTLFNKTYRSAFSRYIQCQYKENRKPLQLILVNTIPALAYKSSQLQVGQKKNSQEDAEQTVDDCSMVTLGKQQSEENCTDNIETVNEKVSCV
compound,measurement,setting,value
"C[C@H]1CN(C)[C@@H]2Cc3c[nH]c4cccc(c34)C=C21 [Example 3, 5β(10→9)abeo-9,10-Didehydro-6-methyl-8β-methyl-ergoline]",pIC50,D2 receptor; [1],6.03
same,pIC50,5-HT1A receptor,8.22
same,pIC50,5-HT2 receptor,6.96
same,pIC50,D1 receptor,5.73
"C[C@H]1CN(C)[C@@H]2C[C@@H]3CN(C(N)=O)c4cccc(c43)C=C21 [Example 36, 5β(10→9)abeo-2,3β-Dihydro-9,10-didehydro-1-amino-carbonyl-6-methyl-8β-methyl-ergoline]",pIC50,D2 receptor; [1],5.35
same,pIC50,5-HT1A receptor; [2],7.00
same,pIC50,5-HT2 receptor,< 5.00
same,pIC50,D1 receptor,< 5.00
"CC(=O)N1C[C@H]2C[C@@H]3C(=Cc4cccc1c42)[C@@H](C)CN3C [Example 34, 5β(10→9)abeo-2,3β-Dihydro-9,10-didehydro-1-acetyl-6-methyl-8β-methyl-ergoline]",pIC50,D2 receptor; [1],5.30
same,pIC50,5-HT1A receptor; [2],7.00
same,pIC50,5-HT2 receptor,< 5.00
same,pIC50,D1 receptor,< 5.00
"CSc1[nH]c2cccc3c2c1C[C@@H]1C(=C3)[C@@H](C)CN1C [Example 5, 5β(10→9)abeo-9,10-Didehydro-2-methylthio-6-methyl-8β-methyl-ergoline]",pIC50,D2 receptor,6.07
same,pIC50,5-HT1A receptor,6.10
same,pIC50,5-HT2 receptor,6.10
same,pIC50,D1 receptor,5.60
"CC(=O)N1C[C@@H]2C[C@@H]3C(=Cc4cccc1c42)[C@@H](C)CN3C [Example 35, 5β(10→9)abeo-2,3α-Dihydro-9,10-didehydro-1-acetyl-6-methyl-8β-methyl-ergoline]",pIC50,D2 receptor; [1],5.22
same,pIC50,5-HT1A receptor; [2],6.28
same,pIC50,5-HT2 receptor,< 5.00
same,pIC50,D1 receptor,< 5.00
"C[C@H]1CN(C)[C@@H]2Cc3c[nH]c4ccc([N+](=O)[O-])c(c34)C=C21 [Example 42, 5β(10→9)abeo-9,10-Didehydro-6-methyl-8β-methyl-14-nitro ergolina]",pIC50,"D2 receptor; read-out: Binding Profile IC50 D2, 3H-Spiperone 0.2 nM, rat corpus striatum, 37° C., 20 minutes",5.70
same,pIC50,5-HT1A receptor; [3],7.74
same,pIC50,5-HT2 receptor,5.73
same,pIC50,D1 receptor,< 5.00
"C[C@H]1CN(C)[C@@H]2C[C@@H]3CNc4ccc([N+](=O)[O-])c(c43)C=C21 [Example 40, 5β(10→9)abeo-2,3β-Dihydro-9,10-didehydro-6-methyl-8β-methyl-12 nitro-ergoline]",pIC50,D2 receptor; [1],5.31
same,pIC50,5-HT1A receptor; [2],8.52
same,pIC50,5-HT2 receptor,5.91
same,pIC50,D1 receptor,5.56
"C[C@H]1CN(C)[C@@H]2Cc3c(Br)[nH]c4cccc(c34)C=C21 [Example 4, 5β(10→9)abeo-9,10-Didehydro-2-bromo-6-methyl-8β-methyl-ergoline]",pIC50,D2 receptor; [1],6.21
same,pIC50,5-HT1A receptor; [2],6.48
same,pIC50,5-HT2 receptor,6.00
same,pIC50,D1 receptor,5.72
"C[C@H]1CN(C)[C@@H]2C[C@@H]3CNc4cccc(c43)C=C21 [Example 33, 5β(10→9)abeo-2,3β-Dihydro-9,10-didehydro-6-methyl-8β-methyl-ergoline]",pIC50,D2 receptor; [1],< 5.00
same,pIC50,5-HT1A receptor; [3],8.22
same,pIC50,5-HT2 receptor,< 5.00
same,pIC50,D1 receptor,< 5.00
"C[C@H]1CN(C)[C@@H]2C[C@@H]3CNc4ccc(Br)c(c43)C=C21 [Example 39, 5β(10→9)abeo-2,3β-Dihydro-9,10-didehydro-6-methyl-8β-methyl-12-bromo-ergoline]",pIC50,D2 receptor,6.89
same,pIC50,5-HT1A receptor,8.22
same,pIC50,5-HT2 receptor,5.68
same,pIC50,D1 receptor,5.15
